According to ChEMBL document CHEMBL5038659, “Discovery of the First Examples of Threonine Tyrosine Kinase PROTAC Degraders” (J Med Chem, 2022):
Activity calls are given as the source filed them. No cut-off for these calls is given here.

Columns and labels:
[1] = molecular target: von Hippel-Lindau disease tumor suppressor/Dual specificity protein kinase TTK (Homo sapiens, UniProt P33981+P40337); test: Protac activity at VHL/TTK in human HCT-116 cells assessed as degradation of TTK measured after 6 hrs by Western blotting analysis; type: cell-based
[2] = molecular target: T1, Protein cereblon/Dual specificity protein kinase TTK (Homo sapiens, UniProt P33981+Q96SW2); test: Protac activity at CRBN/TTK in human HCT-116 cells assessed as degradation of TTK measured after 6 hrs by Western blotting analysis; type: cell-based
Target sequence in this assay (P33981 whole entry): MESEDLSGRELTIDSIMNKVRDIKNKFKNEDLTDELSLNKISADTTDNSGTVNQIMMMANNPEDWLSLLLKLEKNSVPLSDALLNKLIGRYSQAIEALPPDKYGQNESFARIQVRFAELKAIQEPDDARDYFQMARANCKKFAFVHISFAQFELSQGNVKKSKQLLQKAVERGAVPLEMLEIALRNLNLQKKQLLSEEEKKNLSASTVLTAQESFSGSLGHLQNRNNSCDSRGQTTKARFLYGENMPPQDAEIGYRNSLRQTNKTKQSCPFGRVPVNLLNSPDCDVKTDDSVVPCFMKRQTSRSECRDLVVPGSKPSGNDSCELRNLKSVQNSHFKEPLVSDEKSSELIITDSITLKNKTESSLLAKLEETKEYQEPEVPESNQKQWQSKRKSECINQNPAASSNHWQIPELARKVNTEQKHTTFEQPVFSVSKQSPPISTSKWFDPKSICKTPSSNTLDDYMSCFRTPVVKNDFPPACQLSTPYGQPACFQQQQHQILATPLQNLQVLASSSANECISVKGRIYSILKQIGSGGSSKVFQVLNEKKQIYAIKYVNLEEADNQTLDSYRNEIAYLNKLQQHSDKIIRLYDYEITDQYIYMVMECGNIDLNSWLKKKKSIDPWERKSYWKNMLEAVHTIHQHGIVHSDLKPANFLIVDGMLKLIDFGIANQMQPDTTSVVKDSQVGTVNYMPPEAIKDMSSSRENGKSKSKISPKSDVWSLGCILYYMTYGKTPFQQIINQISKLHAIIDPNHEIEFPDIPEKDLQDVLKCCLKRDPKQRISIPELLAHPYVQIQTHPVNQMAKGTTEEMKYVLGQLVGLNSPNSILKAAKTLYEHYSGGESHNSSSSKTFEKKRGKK
Target sequence in this assay (Q96SW2 whole entry): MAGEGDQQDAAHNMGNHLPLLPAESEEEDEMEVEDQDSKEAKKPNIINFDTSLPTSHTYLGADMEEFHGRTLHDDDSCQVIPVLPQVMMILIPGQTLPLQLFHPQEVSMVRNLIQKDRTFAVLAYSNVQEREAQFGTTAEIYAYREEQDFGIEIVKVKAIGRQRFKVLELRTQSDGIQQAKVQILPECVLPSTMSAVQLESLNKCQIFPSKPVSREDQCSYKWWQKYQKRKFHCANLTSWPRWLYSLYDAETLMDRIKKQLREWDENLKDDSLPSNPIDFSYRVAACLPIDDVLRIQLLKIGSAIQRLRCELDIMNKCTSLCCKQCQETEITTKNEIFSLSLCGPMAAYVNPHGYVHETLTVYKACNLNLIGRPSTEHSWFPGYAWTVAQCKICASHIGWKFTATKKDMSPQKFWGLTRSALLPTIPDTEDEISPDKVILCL

[3] = molecular target: T1, Protein cereblon/Dual specificity protein kinase TTK; test: Protac activity at CRBN/TTK in human COLO 205 cells assessed as degradation of TTK measured after 6 hrs by Western blotting analysis; type: cell-based
Target sequence in this assay (P33981 whole entry): as the sequence (P33981 whole entry) above
Target sequence in this assay (Q96SW2 whole entry): as the sequence (Q96SW2 whole entry) above

[4] = molecular target: T1, Protein cereblon/Dual specificity protein kinase TTK; test: Protac activity at CRBN/TTK in human COLO 205 cells assessed as TTK degradation by measuring maximum degradation after 6 hrs by Western blotting analysis relative to control; type: cell-based
Target sequence in this assay (P33981 whole entry, looked up): as the sequence (P33981 whole entry) above
Target sequence in this assay (Q96SW2 whole entry, looked up): as the sequence (Q96SW2 whole entry) above

[5] = molecular target: T1, Protein cereblon/Dual specificity protein kinase TTK; test: Protac activity at CRBN/TTK in human HCT-116 cells assessed as TTK degradation by measuring maximum degradation after 6 hrs by Western blotting analysis relative to control; type: cell-based
Target sequence in this assay (P33981 whole entry, looked up): as the sequence (P33981 whole entry) above
Target sequence in this assay (Q96SW2 whole entry, looked up): as the sequence (Q96SW2 whole entry) above

[6] = Toxicity in CB17-SCID mouse xenografted with human […] cells assessed as effect on body weight at 10 to 20 mg/kg, ip daily for 16 days; type: organism-based, COLO 205; details: in vivo, 384 h, dose 10-20 mg/kg, time 16 day
[7] = molecular target: T1, Protein cereblon/Dual specificity protein kinase TTK; test: Protac activity at CRBN/TTK in human COLO 205 cells assessed as induction of TTK degradation at 5 nM after 16 hrs post washout by Western blot analysis; type: cell-based
Target sequence in this assay (P33981 whole entry, looked up): as the sequence (P33981 whole entry) above
Target sequence in this assay (Q96SW2 whole entry, looked up): as the sequence (Q96SW2 whole entry) above

COLO 205 [8] = test: Antiproliferative against human COLO 205 cells assessed as cell viability after 4 days by CCK-8 assay; type: functional, cell-based; details: COLO 205, 96 h
[9] = molecular target: T1, Protein cereblon/Dual specificity protein kinase TTK; test: Protac activity at CRBN/TTK in human COLO 205 cells assessed as induction of TTK degradation in presence of MG132 incubated for 1 hr by Western blotting analysis relative to control; type: cell-based
Target sequence in this assay (P33981 whole entry, looked up): as the sequence (P33981 whole entry) above
Target sequence in this assay (Q96SW2 whole entry, looked up): as the sequence (Q96SW2 whole entry) above

[10] = molecular target: T1, Protein cereblon/Dual specificity protein kinase TTK; test: Protac activity at CRBN/TTK in human LoVo cells assessed as degradation of TTK measured at […] for 6 hrs by Western blotting analysis; type: cell-based; details: dose lower 5.0 µM
Target sequence in this assay (P33981 whole entry, looked up): as the sequence (P33981 whole entry) above
Target sequence in this assay (Q96SW2 whole entry, looked up): as the sequence (Q96SW2 whole entry) above

[11] = molecular target: T1, Protein cereblon/Dual specificity protein kinase TTK; test: Protac activity at CRBN/TTK in human COLO 205 cells assessed as induction of TTK degradation in presence of N-[4-[2-[2-methoxy-4-(4-methylpiperazin-1-yl)anilino]-5-methyl-7-oxo-pyrido[2,3-d]pyrimidin-8-yl]cyclohexyl]propanamide after 6 hrs by Western blotting relative to control; type: cell-based
Target sequence in this assay (P33981 whole entry, looked up): as the sequence (P33981 whole entry) above
Target sequence in this assay (Q96SW2 whole entry, looked up): as the sequence (Q96SW2 whole entry) above

COLO 205 [12] = test: Antitumor activity against human COLO205 cells xenografted in CB17-SCID mouse assessed as tumor growth inhibition at 10 mg/kg, ip daily for 16 days relative to control; type: functional, organism-based; details: time 16.0 day
[13] = Half life in Sprague-Dawley rat at 10 mg/kg, ip by LC-MS/MS analysis; type: ADME, organism-based; details: in vivo
[14] = AUC in Sprague-Dawley rat at 10 mg/kg, ip by LC-MS/MS analysis; type: ADME, organism-based; set-up: dose 10 mg/kg; details: in vivo
[15] = molecular target: T1, Protein cereblon/Dual specificity protein kinase TTK; test: Protac activity at CRBN/TTK in human […] cells assessed as degradation of TTK measured at […] for 6 hrs by Western blotting analysis; type: cell-based; details: dose lower 5.0 µM
HCT-8 = test: Antiproliferative against human HCT-8 cells assessed as cell viability at 0.0001 to 100 uM at day 4 by CCK-8 assay; type: functional, cell-based; details: dose 0.0001-100 µM
LoVo = test: Antiproliferative against human LoVo cells assessed as cell viability at 0.0001 to 100 uM at day 4 by CCK-8 assay; type: functional, cell-based; details: dose 0.0001-100 µM
[16] = molecular target: T1, Protein cereblon/Dual specificity protein kinase TTK; test: In vivo protac activity at CRBN/TTK in human COLO-205 cells xenografted in CB17-SCID mouse at 10 to 20 mg/kg, ip daily for 16 days by western blotting analysis; type: organism-based; details: dose 10-20 mg/kg, time 16.0 day
[17] = molecular target: T1, Protein cereblon/Dual specificity protein kinase TTK; test: Protac activity at CRBN/TTK in human COLO 205 cells assessed as induction of TTK degradation at 5 nM after 6 to 8 hrs post washout by Western blot analysis; type: cell-based; details: time 6-8 hrs
HCT-29 = test: Antiproliferative against human […] cells assessed as cell viability at 0.0001 to 100 uM at day 4 by CCK-8 assay; type: functional, cell-based; details: dose 0.0001-100 µM
[18] = molecular target: T1, Protein cereblon/Dual specificity protein kinase TTK; test: Protac activity at CRBN/TTK in human HCT-8 cells assessed as degradation of TTK measured at […] for 6 hrs by Western blotting analysis; type: cell-based; details: dose lower 5.0 µM
COLO 205 [19] = test: Antitumor activity against human COLO205 cells xenografted in CB17-SCID mouse assessed as tumor growth inhibition at 20 mg/kg, ip daily for 16 days relative to control; type: functional; details: COLO 205, ip, 384 h, time 16 day, read-out: TGI

Chain of von Hippel-Lindau disease tumor suppressor/Dual specificity protein kinase TTK (P33981 whole entry): as the sequence (P33981 whole entry) above
Chain of von Hippel-Lindau disease tumor suppressor/Dual specificity protein kinase TTK (P40337 whole entry): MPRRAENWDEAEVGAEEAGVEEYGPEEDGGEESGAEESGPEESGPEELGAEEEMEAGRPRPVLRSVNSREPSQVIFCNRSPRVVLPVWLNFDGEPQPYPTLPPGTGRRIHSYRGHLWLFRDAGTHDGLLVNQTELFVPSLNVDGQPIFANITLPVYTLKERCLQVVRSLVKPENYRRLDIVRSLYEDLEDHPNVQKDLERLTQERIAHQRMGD

CCC(=O)N[C@H]1CC[C@@H](n2c(=O)cc(C)c3cnc(Nc4ccc(N5CCN(CCCCOCCC(=O)N[C@H](C(=O)N6C[C@H](O)C[C@H]6C(=O)NCc6ccc(-c7scnc7C)cc6)C(C)(C)C)CC5)cc4OC)nc32)CC1
DC50 [1]: > 1 µM

CCC(=O)N[C@H]1CC[C@@H](n2c(=O)cc(C)c3cnc(Nc4ccc(N5CCN(C(=O)CCCC#Cc6ccc7c(c6)C(=O)N(C6CCC(=O)NC6=O)C7)CC5)cc4OC)nc32)CC1 (stereo partly drawn)
DC50 [2]: 0.0254 µM
DC50 [3]: 0.0033 µM
Emax [4]: 77%
Emax [5]: 57%

CCC(=O)N[C@H]1CC[C@@H](n2c(=O)cc(C)c3cnc(Nc4ccc(N5CCN(C(=O)CCCCCC#Cc6ccc7c(c6)C(=O)N(C6CCC(=O)NC6=O)C7)CC5)cc4OC)nc32)CC1 (stereo partly drawn)
Activity [6]: Non-Toxic
Activity [7]: inactive
IC50 (COLO 205 [8]): 0.2 µM
Activity [9]: inactive
Activity [10]: Dose-Dependent Effect
Activity [11]: inactive
Activity (COLO 205 [12]): inactive
DC50 [2]: 0.0124 µM
half-life [13]: 3.2 h
DC50 [3]: 0.0031 µM
AUC [14]: 2.33 µg·h/mL
Activity [15]: Dose-Dependent Effect
Activity (HCT-8): Dose-Dependent Effect
Emax [4]: 82%
Activity (LoVo): Dose-Dependent Effect
Activity [16]: Active
Activity [17]: Active
Activity (HCT-29): Dose-Dependent Effect
Emax [5]: 77%
Activity [18]: Dose-Dependent Effect
inhibition in vivo at 20 mg/kg (COLO 205 [19]): 36.7%

CCC(=O)N[C@H]1CC[C@@H](n2c(=O)cc(C)c3cnc(Nc4ccc(N5CCN(C(=O)CCCCCCCC#Cc6cccc7c6CN(C6CCC(=O)NC6=O)C7=O)CC5)cc4OC)nc32)CC1 (stereo partly drawn)
DC50 [2]: 0.0581 µM
DC50 [3]: 0.007 µM
Emax [4]: 84%
Emax [5]: 53%

CCC(=O)N[C@H]1CC[C@@H](n2c(=O)cc(C)c3cnc(Nc4ccc(N5CCN(C(=O)CCCCCCCC#Cc6cccc7c6C(=O)N(C6CCC(=O)NC6=O)C7)CC5)cc4OC)nc32)CC1 (stereo partly drawn)
DC50 [2]: 0.496 µM
DC50 [3]: 0.046 µM
Emax [4]: 73%
Emax [5]: 37%

CCC(=O)N[C@H]1CC[C@@H](n2c(=O)cc(C)c3cnc(Nc4ccc(N5CCN(C(=O)CCCCCCCCCC#Cc6cccc7c6CN(C6CCC(=O)NC6=O)C7=O)CC5)cc4OC)nc32)CC1 (stereo partly drawn)
DC50 [2]: 0.0496 µM
DC50 [3]: 0.0022 µM
Emax [4]: 87%
Emax [5]: 66%

CCC(=O)N[C@H]1CC[C@@H](n2c(=O)cc(C)c3cnc(Nc4ccc(N5CCN(C(=O)CCCC#Cc6ccc7c(c6)CN(C6CCC(=O)N(C)C6=O)C7=O)CC5)cc4OC)nc32)CC1 (stereo partly drawn)
IC50 (COLO 205 [8]): 1.5 µM

CCC(=O)N[C@H]1CC[C@@H](n2c(=O)cc(C)c3cnc(Nc4ccc(N5CCN(C(=O)CCCCCC#Cc6ccc7c(c6)C(=O)N(C6CCC(=O)N(C)C6=O)C7)CC5)cc4OC)nc32)CC1 (stereo partly drawn)
IC50 (COLO 205 [8]): 1.5 µM

CCC(=O)N[C@H]1CC[C@@H](n2c(=O)cc(C)c3cnc(Nc4ccc(N5CCN(C(=O)CCCCCCCC#Cc6ccc7c(c6)C(=O)N(C6CCC(=O)NC6=O)C7)CC5)cc4OC)nc32)CC1 (stereo partly drawn)
DC50 [2]: 0.161 µM
DC50 [3]: 0.007 µM
Emax [4]: 84%
Emax [5]: 43%

CCC(=O)N[C@H]1CC[C@@H](n2c(=O)cc(C)c3cnc(Nc4ccc(N5CCN(CCCCCCOCCC(=O)N[C@H](C(=O)N6C[C@H](O)C[C@H]6C(=O)NCc6ccc(-c7scnc7C)cc6)C(C)(C)C)CC5)cc4OC)nc32)CC1
DC50 [1]: > 1 µM

CCC(=O)N[C@H]1CC[C@@H](n2c(=O)cc(C)c3cnc(Nc4ccc(N5CCN(C(=O)CCCCCCCCCC#Cc6ccc7c(c6)C(=O)N(C6CCC(=O)NC6=O)C7)CC5)cc4OC)nc32)CC1 (stereo partly drawn)
DC50 [2]: 0.0745 µM
DC50 [3]: 0.0191 µM
Emax [4]: 87%
Emax [5]: 66%

CCC(=O)N[C@H]1CC[C@@H](n2c(=O)cc(C)c3cnc(Nc4ccc(N5CCN(C(=O)CCCCCCCCCC#Cc6cccc7c6C(=O)N(C6CCC(=O)NC6=O)C7)CC5)cc4OC)nc32)CC1 (stereo partly drawn)
DC50 [2]: > 1 µM
DC50 [3]: 0.0217 µM
Emax [4]: 88%
Emax [5]: 13%

CCC(=O)N[C@H]1CC[C@@H](n2c(=O)cc(C)c3cnc(Nc4ccc(N5CCN(C(=O)CCCCCC#Cc6cccc7c6C(=O)N(C6CCC(=O)NC6=O)C7)CC5)cc4OC)nc32)CC1 (stereo partly drawn)
DC50 [2]: > 1 µM
DC50 [3]: 0.0313 µM
Emax [4]: 72%
Emax [5]: 41%

CCC(=O)N[C@H]1CC[C@@H](n2c(=O)cc(C)c3cnc(Nc4ccc(N5CCN(C(=O)CCCC#Cc6cccc7c6CN(C6CCC(=O)NC6=O)C7=O)CC5)cc4OC)nc32)CC1 (stereo partly drawn)
DC50 [2]: > 1 µM
DC50 [3]: 0.599 µM
Emax [4]: 28%
Emax [5]: 43%

CCC(=O)N[C@H]1CC[C@@H](n2c(=O)cc(C)c3cnc(Nc4ccc(N5CCN(C(=O)CCCC#Cc6cccc7c6C(=O)N(C6CCC(=O)NC6=O)C7)CC5)cc4OC)nc32)CC1 (stereo partly drawn)
DC50 [2]: > 1 µM
DC50 [3]: 0.0303 µM
Emax [4]: 64%
Emax [5]: 28%

CCC(=O)N[C@H]1CC[C@@H](n2c(=O)cc(C)c3cnc(Nc4ccc(N5CCN(CCOCCC(=O)N[C@H](C(=O)N6C[C@H](O)C[C@H]6C(=O)NCc6ccc(-c7scnc7C)cc6)C(C)(C)C)CC5)cc4OC)nc32)CC1
DC50 [1]: > 1 µM

CCC(=O)N[C@H]1CC[C@@H](n2c(=O)cc(C)c3cnc(Nc4ccc(N5CCN(C(=O)CCCCCCCCCC#Cc6ccc7c(c6)CN(C6CCC(=O)NC6=O)C7=O)CC5)cc4OC)nc32)CC1 (stereo partly drawn)
DC50 [2]: 0.0302 µM
DC50 [3]: 0.0056 µM
Emax [4]: 85%
Emax [5]: 83%

CCC(=O)N[C@H]1CC[C@@H](n2c(=O)cc(C)c3cnc(Nc4ccc(N5CCN(C(=O)CCCCCC#Cc6cccc7c6CN(C6CCC(=O)NC6=O)C7=O)CC5)cc4OC)nc32)CC1 (stereo partly drawn)
DC50 [2]: 0.0203 µM
DC50 [3]: 0.005 µM
Emax [4]: 76%
Emax [5]: 50%

CCC(=O)N[C@H]1CC[C@@H](n2c(=O)cc(C)c3cnc(Nc4ccc(N5CCN(C(=O)CCCCCCCC#Cc6ccc7c(c6)CN(C6CCC(=O)NC6=O)C7=O)CC5)cc4OC)nc32)CC1 (stereo partly drawn)
DC50 [2]: 0.663 µM
DC50 [3]: 0.003 µM
Emax [4]: 85%
Emax [5]: 50%

CCC(=O)N[C@H]1CC[C@@H](n2c(=O)cc(C)c3cnc(Nc4ccc(N5CCN(CCCCCCCCOCCC(=O)N[C@H](C(=O)N6C[C@H](O)C[C@H]6C(=O)NCc6ccc(-c7scnc7C)cc6)C(C)(C)C)CC5)cc4OC)nc32)CC1
DC50 [1]: > 1 µM

CCC(=O)N[C@H]1CC[C@@H](n2c(=O)cc(C)c3cnc(Nc4ccc(N5CCN(C(=O)CCCCCC#Cc6ccc7c(c6)CN(C6CCC(=O)NC6=O)C7=O)CC5)cc4OC)nc32)CC1 (stereo partly drawn)
DC50 [2]: 0.035 µM
DC50 [3]: 0.0015 µM
Emax [4]: 86%
Emax [5]: 61%
